Structures are written as SMILES.

T1 sequence (Q9Y2T5 whole entry): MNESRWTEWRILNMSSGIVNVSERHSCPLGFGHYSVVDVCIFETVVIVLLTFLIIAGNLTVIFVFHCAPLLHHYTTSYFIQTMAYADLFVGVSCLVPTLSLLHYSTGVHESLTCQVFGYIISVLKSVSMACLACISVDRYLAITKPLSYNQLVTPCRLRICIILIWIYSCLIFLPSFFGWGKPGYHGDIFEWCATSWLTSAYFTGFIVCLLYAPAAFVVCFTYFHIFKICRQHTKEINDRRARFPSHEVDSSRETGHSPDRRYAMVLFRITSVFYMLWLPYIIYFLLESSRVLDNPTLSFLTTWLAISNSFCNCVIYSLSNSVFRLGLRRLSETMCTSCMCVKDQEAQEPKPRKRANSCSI

This experiment addresses T1, human GPR52 (Homo sapiens, UniProt Q9Y2T5).
T1 construct: expressed in transfected cells; host or cells: CHO(dhfr-) cells
Kind of experiment: Increase of intracellular cAMP concentration in human GPR52-expressing CHO cell (AlphaScreen cAMP assay). Format: cell-based. The conditions noted are these: 0.5 h; test compound 10 µm, 37°C, 30 min, human GPR52-expressing CHO(dhfr-) cells; 100% = cAMP with 1 µM N-(2-hydroxyethyl)-3-[2-[3-(trifluoromethyl)benzyl]-1-benzofuran-4-yl]benzamide, 0% = DMSO; read-out: GPR52 agonist activity (%). How it is done: Increase of intracellular cAMP concentration in human GPR52-expressing CHO cell
Using OptiPlate-384 (PerkinElmer Inc.), 1×10^4 human GPR52-expressing CHO(dhfr-) cells were incubated together with a test compound ([…]) in an assay buffer (30 µL, HBSS (containing Ca^2+ and Mg^2+), 0.5% BSA, 100 µM IBMX, 100 µM Ro20-1724, 5 mM HEPES (pH 7.55)) at 37°C for 30 min. Thereafter, according to the protocol of AlphaScreen cAMP Assay Kit (PerkinElmer Inc.), the intracellular cAMP concentration was measured by EnVision (PerkinElmer Inc.). The GPR52 agonist activity was calculated, assuming the intracellular cAMP concentration in the presence of 1 µM N-(2-hydroxyethyl)-3-[2-[3-(trifluoromethyl)benzyl]-1-benzofuran-4-yl]benzamide to be 100% and assuming the intracellular cAMP concentration when DMSO was added instead of the test compound to be 0%.
Take `Cc1nc(Cc2ccc(F)c(Cl)c2)sc1NC(=O)c1ccnn1C` [Example 156, N-[2-(3-chloro-4-fluorobenzyl)-4-methyl-1,3-thiazol-5-yl]-1-methyl-1H-pyrazole-5-carboxamide]: the activation at 10 µM stood at 76%.

With `Cc1nc(Cc2cccc(Cl)c2)sc1NC(=O)c1ccnn1C` [Example 157, N-[2-(3-chlorobenzyl)-4-methyl-1,3-thiazol-5-yl]-1-methyl-1H-pyrazole-5-carboxamide], the activation at 10 µM came out at 77%.

For `Cc1nc(Cc2cc(F)cc(Cl)c2)sc1NC(=O)c1cc([N+](=O)[O-])nn1C` [Example 158, N-[2-(3-chloro-5-fluorobenzyl)-4-methyl-1,3-thiazol-5-yl]-1-methyl-3-nitro-1H-pyrazole-5-carboxamide], the activation at 10 µM is 69%.

In the case of `CCOC(=O)c1cc(C(=O)Nc2sc(Cc3cc(F)cc(Cl)c3)nc2C)n(C)n1` [Example 159, ethyl 5-{[2-(3-chloro-5-fluorobenzyl)-4-methyl-1,3-thiazol-5-yl]carbamoyl}-1-methyl-1H-pyrazole-3-carboxylate], the activation at 10 µM came to 71%.

On to `Cc1nc(Cc2ccc(F)c(F)c2)sc1NC(=O)c1ccnn1C` [Example 160, N-[2-(3,4-difluorobenzyl)-4-methyl-1,3-thiazol-5-yl]-1-methyl-1H-pyrazole-5-carboxamide], for which the activation at 10 µM came to 74%.

As to `COCCn1nccc1C(=O)Nc1sc(Cc2cc(F)cc(Cl)c2)nc1C` [Example 161, N-[2-(3-chloro-5-fluorobenzyl)-4-methyl-1,3-thiazol-5-yl]-1-(2-methoxyethyl)-1-pyrazole-5-carboxamide], the activation at 10 µM is 81%.

As for `Cc1nc(Cc2cc(F)cc(Cl)c2)sc1NC(=O)c1ccnn1CC(C)C` [Example 162, N-[2-(3-chloro-5-fluorobenzyl)-4-methyl-1,3-thiazol-5-yl]-1-(2-methylpropyl)-1H-pyrazole-5-carboxamide], the activation at 10 µM is 70%.

On to `Cc1nc(Cc2cc(F)cc(Cl)c2)sc1NC(=O)c1ccnn1CC(F)(F)F` [Example 163, N-[2-(3-chloro-5-fluorobenzyl)-4-methyl-1,3-thiazol-5-yl]-1-(2,2,2-trifluoroethyl)-1H-pyrazole-5-carboxamide], for which the activation at 10 µM came out at 78%.

Consider `Cc1nc(Cc2cc(F)cc(Cl)c2)sc1NC(=O)c1cc(C(N)=O)nn1C` [Example 164, N^5-[2-(3-chloro-5-fluorobenzyl)-4-methyl-1,3-thiazol-5-yl]-1-methyl-1H-pyrazole-3,5-dicarboxamide], for which the activation at 10 µM was found to be 80%.

In the case of `Cc1nc(Cc2cc(F)cc(Cl)c2)sc1NC(=O)c1cc(CO)nn1C` [Example 166, N-[2-(3-chloro-5-fluorobenzyl)-4-methyl-1,3-thiazol-5-yl]-3-(hydroxymethyl)-1-methyl-1H-pyrazole-5-carboxamide], the activation at 10 µM stood at 88%.

For `Cc1nc(Cc2cc(F)cc(Cl)c2)sc1NC(=O)c1ccc(=O)n(C)c1` [Example 167, N-[2-(3-chloro-5-fluorobenzyl)-4-methyl-1,3-thiazol-5-yl]-1-methyl-6-oxo-1,6-dihydropyridine-3-carboxamide], the activation at 10 µM was found to be 70%.

For `Cc1nc(Cc2cc(F)cc(Cl)c2)sc1NC(=O)c1nc([N+](=O)[O-])cn1C` [Example 169, N-[2-(3-chloro-5-fluorobenzyl)-4-methyl-1,3-thiazol-5-yl]-1-methyl-4-nitro-1H-imidazole-2-carboxamide], the activation at 10 µM amounted to 76%.

For the molecule `Cc1nc(Cc2cc(F)cc(Cl)c2)sc1NC(=O)c1cnn(C)c1` [Example 171, N-[2-(3-chloro-5-fluorobenzyl)-4-methyl-1,3-thiazol-5-yl]-1-methyl-1H-pyrazole-4-carboxamide], the activation at 10 µM is 70%.

With `Cc1nc(Cc2cc(F)cc(Cl)c2)sc1NC(=O)C1(S(C)(=O)=O)CC1` [Example 172, N-[2-(3-chloro-5-fluorobenzyl)-4-methyl-1,3-thiazol-5-yl]-1-(methylsulfonyl)cyclopropanecarboxamide], the activation at 10 µM was determined as 89%.

Consider `COCCNC(=O)C1(C(=O)Nc2sc(Cc3cc(F)cc(Cl)c3)nc2C)CC1` [Example 175, N-[2-(3-chloro-5-fluorobenzyl)-4-methyl-1,3-thiazol-5-yl]-N'-(2-methoxyethyl)cyclopropane-1,1-dicarboxamide], for which the activation at 10 µM was 71%.

With `CC(=O)Nc1cn(C)c(C(=O)Nc2sc(Cc3cc(F)cc(Cl)c3)nc2C)n1` [Example 176, 4-(acetylamino)-N-[2-(3-chloro-5-fluorobenzyl)-4-methyl-1,3-thiazol-5-yl]-1-methyl-1H-imidazole-2-carboxamide], the activation at 10 µM turned out to be 99%.

For `CCc1cc(C(=O)Nc2sc(Cc3cc(F)cc(Cl)c3)nc2C)n(C)n1` [Example 177, N-[2-(3-chloro-5-fluorobenzyl)-4-methyl-1,3-thiazol-5-yl]-3-ethyl-1-methyl-1H-pyrazole-5-carboxamide], the activation at 10 µM worked out at 86%.

As to `Cc1nc(Cc2cc(F)cc(Cl)c2)sc1NC(=O)c1c(C)ncn1C` [Example 179, N-[2-(3-chloro-5-fluorobenzyl)-4-methyl-1,3-thiazol-5-yl]-1,4-dimethyl-1H-imidazole-5-carboxamide], the activation at 10 µM came to 80%.

On to `Cc1nc(Cc2cc(F)cc(Cl)c2)sc1NC(=O)c1ncn(C)c1C` [Example 180, N-[2-(3-chloro-5-fluorobenzyl)-4-methyl-1,3-thiazol-5-yl]-1,5-dimethyl-1H-imidazole-4-carboxamide], for which the activation at 10 µM stood at 75%.

As to `Cc1nc(Cc2cc(F)cc(C(F)(F)F)c2)sc1NC(=O)c1ccnn1C` [Example 181, N-{2-[3-fluoro-5-(trifluoromethyl)benzyl]-4-methyl-1,3-thiazol-5-yl}-1-methyl-1H-pyrazole-5-carboxamide], the activation at 10 µM turned out to be 91%.

`Cc1nc(Cc2cc(F)cc(Cl)c2)sc1NC(=O)c1scnc1C` [Example 184, N-[2-(3-chloro-5-fluorobenzyl)-4-methyl-1,3-thiazol-5-yl]-4-methyl-1,3-thiazole-5-carboxamide]: the activation at 10 µM was found to be 87%.

As for `Cc1nc(Cc2cc(F)cc(Cl)c2)sc1NC(=O)c1cccn1C` [Example 185, N-[2-(3-chloro-5-fluorobenzyl)-4-methyl-1,3-thiazol-5-yl]-1-methyl-1H-pyrrole-2-carboxamide], the activation at 10 µM worked out at 81%.

Regarding `Cc1nc(Cc2cc(F)cc(Cl)c2)sc1NC(=O)c1c(C)noc1C` [Example 186, N-[2-(3-chloro-5-fluorobenzyl)-4-methyl-1,3-thiazol-5-yl]-3,5-dimethylisoxazole-4-carboxamide], the activation at 10 µM is 94%.

Consider `Cc1nc(Cc2cc(F)cc(Cl)c2)sc1NC(=O)c1c(Cl)cnn1C` [Example 206, 4-chloro-N-[2-(3-chloro-5-fluorobenzyl)-4-methyl-1,3-thiazol-5-yl]-1-methyl-1H-pyrazole-5-carboxamide], for which the activation at 10 µM was 74%.

In the case of `Cc1nc(Cc2cc(F)cc(Cl)c2)sc1NC(=O)C1CCS(=O)(=O)CC1` [Example 208, N-[2-(3-chloro-5-fluorobenzyl)-4-methyl-1,3-thiazol-5-yl]-tetrahydro-2H-thiopyran-4-carboxamide 1,1-dioxide], the activation at 10 µM came to 72%.

For the origin of these results see patent EP2530078A1, “THIAZOLE DERIVATIVE” (Takeda Pharmaceutical Company Limited, priority 2010, dated 2011).
